Entries after “also recorded” stand apart in the source; their conditions may differ.
Key:
[1] = Zymosan A-induced murine peritonitis: appearance of i.v. labeled omega-3 fatty acids in peritoneal exudates; assay type: in vivo, male FVB mice; details: for time of maximum level in peritoneal exudate: 1 μg/mouse i.v. just before i.p. zymosan A, GC-MS; for exudate level at 48 h compared with 24 h: 1 μg/mouse i.v., p<0.05
Method: Male FVB mice were anesthetized with isoflurane (Hospira Inc, Lake Forest, Ill.). Both 1 μg d5-DHA (4Z,7Z,10Z,13Z,16Z,19Z-docosahexaenoic-21,21,22,22,22-d5 acid: Cayman Chemical, Ann Arbor, Mich.) and 1 μg d5-EPA (5Z,8Z,11Z,14Z,17Z-eicosapentaenoic-19,19′,20,20,20-d5 acid: Cayman Chemical, Ann Arbor, Mich.) in 100 μl of 2% ethanol (v/v) in saline or vehicle alone were administered by bolus tail vein injection. Approximately five minutes later, peritonitis was initiated with intraperitoneal administration of 1 mg of zymosan A (Sigma Aldrich, St. Louis, Mo.). At indicated time intervals, mice were euthanized with an overdose of isoflurane, and peritoneal exudates were collected by lavage with 5 ml of DPBS without either Ca^2+ or Mg^2+. Exudate cells and supernatants were separated by centrifugation (10 min, 1000 rpm, 4° C.), aliquots of supernatants were collected, and 4 volumes of cold acetone were added to precipitate proteins. Serum albumin and total protein levels were determined^32.
Briefly, FVB mice (6-8 wk) received d5-EPA and d5-DHA i.v. (1 μg/mouse of each) (FIG. 4D, top panel) just before i.p. challenge with zymosan A (1 mg/ml/mouse) (FIG. 4D, middle panel). Peritoneal exudates were collected at 0, 2, 4, 12, 24 and 48 h and taken to solid phase extraction. Eluate fractions were treated with diazomethane and taken to GC-MS. Results represent the mean±SEM from n=3, separate mice. Mass spectra of d5-EPA methyl ester and d5-DHA methyl ester. d5-EPA and d5-DHA were derivatized into methyl esters and submitted to GC-MS for analysis shown in FIGS. 4A-C.
For tracer experiments, mice were fasted overnight (˜18 h) before 500 nCi of [1-^14C]-DHA (docosahexaenoic acid 4,7,10,13,16,19-[1-^14C], American Radiolabeled Chemicals Inc, St. Louis, Mo.) was injected via the tail vein. At indicated time intervals, exudates were collected (vide supra) and the radioactivity was determined using a scintillation counter (Multi-purpose scintillation counter LS6500, Beckman Coulter, Fullerton, Calif.).
Upon collection of peritoneal exudates, 2 volumes of cold methanol and internal standard (500 ng/sample, trans-parinaric acid, Molecular Probe, Eugene, Oreg.) were added to exudates, which were stored at −20° C. for 1 hr. After centrifugation, samples were diluted and applied to C18 cartridge columns (Extract-Clean EV SPE, Alltech, Deerfield, Ill.). Lipids were extracted using hexane and methyl formate and each fraction was collected and its unesterified fatty acids converted to corresponding methyl ester using diazomethane treatment^34. The esters were suspended in hexane, and then injected in GC-MS. Electron-impact GC-MS was carried out using an HP 6890 GC system with HP5973 Mass Selective Detector (Hewlett-Packard) equipped with an HP-5MS capillary column (0.25 mm ID×30 m, 0.25 μm, Agilent Technologies Inc., Wilmington, Del.) operating at a mass range from m/z 70 to 800. The ionization voltage was 70 eV and the ion source temperature was 230° C. Chromatography was carried out using a column temperature maintained at 150° C. for 2 min and then programmed to increase 10° C./min up to 230° C., 5° C./min up to 280° C., and then maintained at 280° C. for 10 min. EPA and DHA were separated and the area beneath each chromatographic peak of their deuterium labels was obtained by integration using a Chemstation integrator Version D.02.00.275 (Agilent Technologies Inc). […] The inventors selected the ω-3 ion ((CH)3CH2(CH)2CD2CD3=113) for both d5-EPA (FIG. 4A) and d5-DHA (FIG. 4B) methyl ester and M^+(290) for methyl parinate (FIG. 4C). Identification was conducted by examining and retention times as in FIGS. 4A-C (d5-EPA-methyl ester: 11.7 min FIG. 4A, inset, methyl-parinarate; 13.1 min (FIG. 4C, and d5-DHA; 13.9 min, FIG. 4B, inset). Calibration curves were obtained for each: d5-EPA; y=0.0016x+0.0313 (r^2=0.9954, 50-500 ng/ml), d5-DHA; y=0.0015x-0.0524 (r^2=0.9809, 50-500 ng/ml). […]

[2] = system: leukocyte infiltration in lung tissues; assay: Hind-limb ischemia-reperfusion-induced second-organ (lung) injury, lung MPO by ELISA; assay type: in vivo, mice; details: for percent reduction of MPO found in lungs (FIG. 11), mean±SEM: 1 μg i.v. in vehicle, ischemia-reperfusion
Method: To identify the effects of the resolvins and protectins on inflammation resolution, ischemia-reperfusion induced second-organ injury experiments were designed and are illustrated in FIGS. 7A-D. Mice were anesthetized by intraperitoneal injection of pentobarbital (80 mg kg^−1, Nembutal sodium solution NDC 0074-3778-04). Hind-limb ischemia was initiated using tourniquets consisting of a rubber band placed on each hind limb as in ref.^35. Mice were subjected to hind limb ischemia for 1 h, after which the tourniquets were removed to initiate reflow-reperfusion. Resolvins, related compounds and analogs were each administered at 1 μg/mouse (i.e., DHA, RvD1, RvD1 methyl ester, 17-(R/S)-methyl-RvD1 methyl ester, RvE1, or 19-p-fluorophenoxy-RvE1 methyl ester) in vehicle (5 μl ethanol in 120 μl sterile saline) or vehicle alone. They were administered intravenously to the tail vein ˜5 min before the start of the reperfusion period. At the end of this reperfusion period (2 h), the mice were euthanized with an overdose of anesthetic and the lungs were quickly harvested, frozen in liquid nitrogen, and stored at −80° C. The right lungs were homogenized from individual mice and centrifuged, and the tissue levels of myeloperoxidase (MPO) (a leukocyte marker enzyme) in the resulting supernatants, for each experimental protocol, were determined using a mouse MPO enzyme-linked immunosorbent assay (Hycult biotechnology, Cell Sciences, Uden, The Netherlands).
Briefly, as illustrated in the time-course shown in FIG. 7A, hind-limb ischemia was induced in mice by creating tourniquets using a rubber band on each hind limb. After 1 h, the tourniquets were removed and reperfusion ensued. Test compounds (1 μg of DHA, RvD1, RvE1) in vehicle were administered intravenously 5 min before the start of the reperfusion period. At the end of the reperfusion period (2 h), lungs were collected and MPO concentrations were determined by ELISA. FIGS. 7B and C are representative images from histological analysis. FIG. 9B is a photomicrograph showing a hematoxylin/eosin-stained lung from ischemia/reperfusion second organ injury (control). […] Mean±SEM (n=3-5, control; n=12).
Ischemia/reperfusion is a well-appreciated pathophysiologic mechanism of organ injury and local tissue damage that can be initiated by excessively activated PMN. This system in the mouse, models the second organ injury observed in humans following tourniquet release of vessels in surgery involving, for example, extremities^41, 42. Remote or second organ injury can also occur when blood vessels are occluded, or during certain surgical procedures that create local ischemia and remote organ injury that has many features of rapid, acute inflammation and tissue damage^35. On release of the tourniquet occlusion, reflow is initiated and activated PMN rapidly infiltrate secondary organs, causing damage^35. Here, the inventors evaluated RvD1 in a remote organ injury system, i.e., hind-limb ischemia/reperfusion, to assess whether RvD1's ability to inhibit PMN migration, in vitro, in microchambers (FIGS. 8A-C, 9-11) can be predictive of their effect to reduce PMN mediated tissue and organ damage in vivo. […] The extent of lung tissue injury is associated with PMN activation and organ infiltration^35.

human PMN = assay: Microfluidic chemotaxis device: PMN chemotaxis in IL-8 gradient; assay type: cell-based; details: 10 nM (DHA equimolar), PMN captured on P-selectin from a drop of whole blood, n=12
Excerpt: A new microvolume chemotaxis device was designed using polyethylene glycol (PEG) that allows testing the chemotactic function of neutrophils and their responses to these novel lipid mediators immediately after being separated from whole blood within the device. One exemplary embodiment of the device is illustrated in FIGS. 8A-C. In this embodiment, the microvolume chemotaxis device with microstructured valves was fabricated using “lab-on-chip” microfabrication technologies^36. Briefly, two silicon wafers were coated with a 50-μm-thick layer of SU8 photoresist (MicroChem, Newton, Mass.). After exposure to UV light through a mylar mask in a mask, aligner and development following manufacturer recommendations, 50 μm-tall features were produced on top of the silicon wafers. Subsequently, poly (dimethylsiloxane) (PDMS, Dow Corning, Midland, Mich.) was prepared by mixing two components in 10:1 ratio, as recommended by the manufacturer. […]
After assembly, different sections of the device were chemically modified for specific functionalities. […] The surface of the chemotaxis chamber, where neutrophils were captured and assessed for their chemotactic responses, were modified by physical adsorption of P-selectin (10 ng/mL for 30 minutes, R&D Systems, Minneapolis, Minn.) immediately before use. […]

## [2H]C([2H])([2H])C([2H])([2H])/C=C\C/C=C\C/C=C\C/C=C\C/C=C\CCCC(=O)O [d5-EPA, 5Z,8Z,11Z,14Z,17Z-eicosapentaenoic-19,19′,20,20,20-d5 acid]
[1]
  time of maximum level in peritoneal exudate: 4 h
  exudate level at 48 h compared with 24 h: significantly greater than at 24 h

## CC/C=C\CC(C)(O)/C=C/C=C\C=C\C=C\[C@@H](O)[C@@H](O)C/C=C\CCC(=O)OC (mixture of isomers) [17-(R/S)-methyl-RvD1-Me, 17-(R/S)-methyl-RvD1 carboxymethyl ester]
[2]
  percent reduction of MPO found in lungs (FIG. 11), mean±SEM: 29.3 ±6.4%

## CC/C=C\C[C@H](O)/C=C/C=C\C=C\C=C\[C@@H](O)[C@@H](O)C/C=C\CCC(=O)O [RvD1, 7S,8R,17S-trihydroxy-4Z,9E,11E,13Z,15E,19Z-docosahexaenoic acid]
Human PMN
  effect on PMN migration (chemotaxis) in IL-8 gradient: essentially completely stop PMN movements; also recorded: chemotaxis immediately ceased
[2]; 1 μg i.v. 5 min before reperfusion, lungs collected after 2 h reperfusion
  reduction of lung MPO concentration (FIG. 7D), mean±SEM: 47.5±2.4
[2]; 1 μg/mouse, ischemia/reperfusion injury
  reduction of leukocyte infiltration: ~50%

## CC/C=C\C[C@H](O)/C=C/C=C\C=C\C=C\[C@@H](O)[C@@H](O)C/C=C\CCC(=O)OC [RvD1-Me, RvD1 carboxymethyl ester]
[2]
  percent reduction of MPO found in lungs (FIG. 11), mean±SEM: 22.9 ±6.8%

## [2H]C([2H])([2H])C([2H])([2H])/C=C\C/C=C\C/C=C\C/C=C\C/C=C\C/C=C\CCC(=O)O [d5-DHA, 4Z,7Z,10Z,13Z,16Z,19Z-docosahexaenoic-21,21,22,22,22-d5 acid]
[1]
  time of maximum level in peritoneal exudate: 2 h
  exudate level at 48 h compared with 24 h: significantly greater than at 24 h

## CC/C=C\C/C=C\C/C=C\C/C=C\C/C=C\C/C=C\CCC(=O)O [^14C-DHA, docosahexaenoic acid 4,7,10,13,16,19-[1-^14C]]
[1]; 500 nCi i.v., mice fasted overnight, scintillation counting
  time at which 14C label reached maximal levels in exudate: 1 h
[1]; tracer levels i.v.
  effect on leukocyte trafficking (FACS analysis of exudates): did not reduce leukocyte trafficking
